Laboratory results: ChEMBL document CHEMBL1201862, “PubChem BioAssay data set” (2004)
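How tested: cells in 96-well plates exposed to compound for 48 hours at five concentrations. GI50 is the concentration that inhibits growth by half.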 Calls of active or inactive are those of the source. Rule as the data show it: active = GI50 up to about 1.1 µM and inactive = higher.

Key:
Assay in all cases: DTP human tumour cell line panel, 48 h
[1] = tested on: 786-0
[2] = tested on: ACHN
[3] = tested on: EKVX
[4] = tested on: HCT-15
[5] = tested on: HOP-62
[6] = tested on: HT-29
[7] = tested on: LOX IMVI
[8] = tested on: MDA-MB-231
[9] = tested on: MDA-MB-435
[10] = tested on: NCI-H460
[11] = tested on: NCI-H522
[12] = tested on: OVCAR-4
[13] = tested on: SN12C
[14] = tested on: SNB-75
[15] = tested on: SW-620
[16] = tested on: TK-10
[17] = tested on: U-251
[18] = tested on: UACC-257
[19] = tested on: UO-31
[20] = tested on: MDA-N

| Compound | GI50 [1] | GI50 [2] | GI50 [3] | GI50 [4] [µM] | GI50 [5] | GI50 [6] | GI50 [7] | GI50 [8] | GI50 [9] | GI50 [10] | GI50 [11] | GI50 [12] | GI50 [13] | GI50 [14] | GI50 [15] | GI50 [16] | GI50 [17] | GI50 [18] | GI50 [19] | GI50 [20] |
| --- | --- | --- | --- | --- | --- | --- | --- | --- | --- | --- | --- | --- | --- | --- | --- | --- | --- | --- | --- | --- |
| CC(C)(C)C1=NN=C2c3ccccc3C(=O)C21 (configuration not stated) | 99.5 µM (inactive) | 43.1 µM (inactive) | 27.4 µM (inactive) | 29.4 | > 100 µM (inactive) | 28.2 µM (inactive) | 41.1 µM (inactive) | 40.4 µM (inactive) | 41.6 µM (inactive) | 43.9 µM (inactive) | 35.4 µM (inactive) | 38.8 µM (inactive) | 42.6 µM (inactive) | 79.6 µM (inactive) | 65.6 µM (inactive) | 53 µM (inactive) | 46.9 µM (inactive) | 62.7 µM (inactive) | 4.78 µM (inactive) | – |
| S=C1N=C(Cl)/C(=C\c2ccco2)N1 | > 100 µM (inactive) | > 100 µM (inactive) | > 100 µM (inactive) | > 100 | > 100 µM (inactive) | > 100 µM (inactive) | > 100 µM (inactive) | > 100 µM (inactive) | > 100 µM (inactive) | > 100 µM (inactive) | 33.7 µM (inactive) | > 47.2 µM (inactive) | > 100 µM (inactive) | > 74.6 µM (inactive) | > 100 µM (inactive) | > 100 µM (inactive) | > 100 µM (inactive) | > 100 µM (inactive) | > 100 µM (inactive) | – |
| O=C1Nc2ccc(Cl)c(I)c2C1=O | 19.7 µM (inactive) | 16.7 µM (inactive) | 5.62 µM (inactive) | 20.9 | 19.5 µM (inactive) | 29.6 µM (inactive) | 18.5 µM (inactive) | – | – | 21.2 µM (inactive) | 17.2 µM (inactive) | 18.1 µM (inactive) | 17.2 µM (inactive) | 22.8 µM (inactive) | 19.5 µM (inactive) | 38.5 µM (inactive) | 17.2 µM (inactive) | 17.9 µM (inactive) | 17.7 µM (inactive) | – |
| CC(=O)OC[C@@]12CC[C@H]3C(C)(C)CCC[C@]3(C)[C@H]1C[C@@H](C1=CC(=O)O[C@H]1O)O2 | 1.8 µM (inactive) | 2.54 µM (inactive) | 11.7 µM (inactive) | 2.05 | 10.4 µM (inactive) | 2.52 µM (inactive) | 1.34 µM (inactive) | – | 2.13 µM (inactive) | 8.69 µM (inactive) | 1.62 µM (inactive) | – | 3.55 µM (inactive) | 3.74 µM (inactive) | 4.81 µM (inactive) | 3.94 µM (inactive) | – | 2.12 µM (inactive) | 2.1 µM (inactive) | 2.24 µM (inactive) |
| N#Cc1cc(C#N)c(Cl)nc1N | > 10 µM (inactive) | > 10 µM (inactive) | > 10 µM (inactive) | > 10 | > 10 µM (inactive) | > 10 µM (inactive) | > 10 µM (inactive) | – | > 10 µM (inactive) | > 10 µM (inactive) | – | > 10 µM (inactive) | > 10 µM (inactive) | > 10 µM (inactive) | > 10 µM (inactive) | > 10 µM (inactive) | > 10 µM (inactive) | – | 0.0323 µM (active) | > 10 µM (inactive) |
| COc1cc(S(=O)(=O)Nc2ccc(-c3csc(N4C(=O)CSC4c4ccccc4O)n3)cc2)ccc1Cl (configuration not stated) | 69.2 µM (inactive) | 32.4 µM (inactive) | 25.4 µM (inactive) | 58.5 | 85.7 µM (inactive) | 92 µM (inactive) | 34.4 µM (inactive) | – | 40.4 µM (inactive) | 21.4 µM (inactive) | 24.3 µM (inactive) | 52.2 µM (inactive) | 92 µM (inactive) | 31.9 µM (inactive) | 35.2 µM (inactive) | – | – | 27.7 µM (inactive) | 51.3 µM (inactive) | 32.9 µM (inactive) |
| CCN(CC)CCSc1c2ccccc2nc2c(OC)ccc(OC)c12 | 4.13 µM (inactive) | 5.61 µM (inactive) | > 56.6 µM (inactive) | 3.15 | 31.8 µM (inactive) | 4.59 µM (inactive) | 4.81 µM (inactive) | – | – | 10.8 µM (inactive) | 3.26 µM (inactive) | 10.7 µM (inactive) | 5.73 µM (inactive) | > 49.7 µM (inactive) | 2.08 µM (inactive) | 4.97 µM (inactive) | 30.3 µM (inactive) | 3.78 µM (inactive) | 12.8 µM (inactive) | – |
| Cc1ccc(S(=O)(=O)OC2CN3CCC2CC3)cc1 (configuration not stated) | > 100 µM (inactive) | > 100 µM (inactive) | > 100 µM (inactive) | > 100 | > 100 µM (inactive) | > 100 µM (inactive) | > 100 µM (inactive) | > 100 µM (inactive) | > 100 µM (inactive) | > 100 µM (inactive) | > 100 µM (inactive) | > 100 µM (inactive) | > 100 µM (inactive) | > 100 µM (inactive) | > 100 µM (inactive) | > 100 µM (inactive) | > 100 µM (inactive) | > 100 µM (inactive) | > 100 µM (inactive) | – |
